# Reference: publication PMC10629583, “Specific inhibition of an anticancer target, polo-like kinase 1, by allosterically dismantling its mechanism of substrate recognition” (Proceedings of the National Academy of Sciences of the …, 2023)
# “Also recorded” adds a separate entry of the source.
# How the values were obtained:
# [1] = system: 45 receptors and channels; experiment: PDSP off-target screen (whole panel); type: binding, human
# Source text: (§1) PDSP no. Compound Interactions (Ki, µM)
# (§2) 60477 Allopole-A None observed.
# (§3) trigger a secondary screen at that receptor.
# [2] = molecular target: T1, Alpha1B (Homo sapiens, UniProt P35368); experiment: PDSP off-target binding screen; details: for inhibition at 10 µM: read-out: Primary screen AVE(%inhib)±SD; for Ki: read-out: Secondary screen Ki
# T1 sequence (P35368 1-520): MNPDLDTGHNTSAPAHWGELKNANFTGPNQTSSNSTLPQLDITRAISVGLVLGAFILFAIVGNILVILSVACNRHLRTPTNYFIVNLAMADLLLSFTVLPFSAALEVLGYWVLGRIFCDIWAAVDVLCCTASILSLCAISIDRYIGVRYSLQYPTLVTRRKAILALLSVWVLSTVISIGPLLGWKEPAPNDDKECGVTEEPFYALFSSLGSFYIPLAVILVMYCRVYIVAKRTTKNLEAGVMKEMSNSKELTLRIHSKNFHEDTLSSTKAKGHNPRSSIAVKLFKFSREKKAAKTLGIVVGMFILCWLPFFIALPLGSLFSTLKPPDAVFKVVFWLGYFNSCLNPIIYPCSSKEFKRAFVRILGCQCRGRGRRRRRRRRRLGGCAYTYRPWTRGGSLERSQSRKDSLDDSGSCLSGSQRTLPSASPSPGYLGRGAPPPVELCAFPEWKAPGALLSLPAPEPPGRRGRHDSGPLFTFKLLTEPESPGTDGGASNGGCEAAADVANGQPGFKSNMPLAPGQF
# Source text: as §1, §2, §3
# [3] = molecular target: T2, Alpha1D (Homo sapiens, UniProt P25100); experiment: PDSP off-target binding screen; details: for inhibition at 10 µM: read-out: Primary screen AVE(%inhib)±SD; for Ki: read-out: Secondary screen Ki
# T2 sequence (P25100 1-572): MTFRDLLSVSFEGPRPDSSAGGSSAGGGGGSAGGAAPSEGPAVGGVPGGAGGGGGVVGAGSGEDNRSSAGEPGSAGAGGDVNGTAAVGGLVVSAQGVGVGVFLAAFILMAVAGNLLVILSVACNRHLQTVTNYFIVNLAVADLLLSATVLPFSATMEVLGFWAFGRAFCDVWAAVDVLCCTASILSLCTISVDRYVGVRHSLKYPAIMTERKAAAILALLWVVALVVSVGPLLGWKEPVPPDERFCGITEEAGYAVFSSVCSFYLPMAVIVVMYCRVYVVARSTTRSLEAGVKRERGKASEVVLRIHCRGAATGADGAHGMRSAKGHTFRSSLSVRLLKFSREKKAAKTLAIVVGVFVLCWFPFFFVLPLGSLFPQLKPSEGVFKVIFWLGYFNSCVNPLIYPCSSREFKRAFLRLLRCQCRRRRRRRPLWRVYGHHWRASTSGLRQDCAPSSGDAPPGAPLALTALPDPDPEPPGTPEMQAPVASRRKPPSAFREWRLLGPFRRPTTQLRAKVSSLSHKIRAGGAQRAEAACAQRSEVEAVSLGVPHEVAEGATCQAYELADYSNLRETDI
# Source text: as §1, §2, §3
# [4] = molecular target: T3, M2 (Homo sapiens, UniProt P08172); experiment: PDSP off-target binding screen; details: for inhibition at 10 µM: read-out: Primary screen AVE(%inhib)±SD; for Ki: read-out: Secondary screen Ki
# T3 sequence (P08172 1-466): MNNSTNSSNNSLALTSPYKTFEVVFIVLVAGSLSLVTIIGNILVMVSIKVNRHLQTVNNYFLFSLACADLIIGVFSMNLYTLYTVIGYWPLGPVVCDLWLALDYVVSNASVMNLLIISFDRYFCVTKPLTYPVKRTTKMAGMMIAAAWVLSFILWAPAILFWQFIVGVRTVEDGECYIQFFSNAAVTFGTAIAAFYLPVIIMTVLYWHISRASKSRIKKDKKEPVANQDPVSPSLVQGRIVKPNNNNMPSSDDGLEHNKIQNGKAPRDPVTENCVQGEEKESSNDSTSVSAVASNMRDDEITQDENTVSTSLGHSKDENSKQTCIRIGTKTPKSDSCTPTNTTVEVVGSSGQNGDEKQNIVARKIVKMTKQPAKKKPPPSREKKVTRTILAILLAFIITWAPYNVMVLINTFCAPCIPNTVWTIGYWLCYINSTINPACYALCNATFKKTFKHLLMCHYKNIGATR
# Source text: as §1, §2, §3
# [5] = molecular target: T4, M4 (Homo sapiens, UniProt P08173); experiment: PDSP off-target binding screen; details: for inhibition at 10 µM: read-out: Primary screen AVE(%inhib)±SD; for Ki: read-out: Secondary screen Ki
# T4 sequence (P08173 1-479): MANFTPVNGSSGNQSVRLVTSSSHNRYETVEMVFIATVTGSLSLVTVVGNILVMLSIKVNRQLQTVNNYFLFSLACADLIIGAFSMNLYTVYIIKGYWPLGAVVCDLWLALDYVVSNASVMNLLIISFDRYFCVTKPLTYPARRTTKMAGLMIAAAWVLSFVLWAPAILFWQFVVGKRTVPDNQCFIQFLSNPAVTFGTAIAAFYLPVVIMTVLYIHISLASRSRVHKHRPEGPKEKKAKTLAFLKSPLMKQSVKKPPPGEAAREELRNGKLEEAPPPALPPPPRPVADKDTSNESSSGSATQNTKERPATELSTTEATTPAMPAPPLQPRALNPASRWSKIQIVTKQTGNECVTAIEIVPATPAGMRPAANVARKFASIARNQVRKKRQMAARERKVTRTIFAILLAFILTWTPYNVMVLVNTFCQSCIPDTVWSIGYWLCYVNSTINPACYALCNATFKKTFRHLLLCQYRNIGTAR
# Source text: as §1, §2, §3
# [6] = molecular target: 5-HT2A (Homo sapiens, UniProt P28223); experiment: PDSP off-target binding screen; details: for inhibition at 10 µM: read-out: Primary screen AVE(%inhib)±SD
# Chain of 5-HT2A (P28223 whole entry): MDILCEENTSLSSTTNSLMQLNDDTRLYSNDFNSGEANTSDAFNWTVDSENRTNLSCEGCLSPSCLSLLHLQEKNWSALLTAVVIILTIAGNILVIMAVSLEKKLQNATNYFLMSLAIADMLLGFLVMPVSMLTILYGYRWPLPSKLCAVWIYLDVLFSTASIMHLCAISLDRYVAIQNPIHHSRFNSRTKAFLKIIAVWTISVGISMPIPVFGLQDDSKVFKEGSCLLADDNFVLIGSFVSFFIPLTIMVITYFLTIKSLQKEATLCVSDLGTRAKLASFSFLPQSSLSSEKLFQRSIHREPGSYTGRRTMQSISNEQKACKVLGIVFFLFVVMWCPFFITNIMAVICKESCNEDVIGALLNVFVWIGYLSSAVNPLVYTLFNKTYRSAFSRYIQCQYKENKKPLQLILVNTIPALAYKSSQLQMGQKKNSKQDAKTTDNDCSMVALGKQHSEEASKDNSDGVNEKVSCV
# [7] = molecular target: 5-HT2B (Homo sapiens, UniProt P41595); experiment: PDSP off-target binding screen; details: for inhibition at 10 µM: read-out: Primary screen AVE(%inhib)±SD
# Chain of 5-HT2B (P41595 whole entry): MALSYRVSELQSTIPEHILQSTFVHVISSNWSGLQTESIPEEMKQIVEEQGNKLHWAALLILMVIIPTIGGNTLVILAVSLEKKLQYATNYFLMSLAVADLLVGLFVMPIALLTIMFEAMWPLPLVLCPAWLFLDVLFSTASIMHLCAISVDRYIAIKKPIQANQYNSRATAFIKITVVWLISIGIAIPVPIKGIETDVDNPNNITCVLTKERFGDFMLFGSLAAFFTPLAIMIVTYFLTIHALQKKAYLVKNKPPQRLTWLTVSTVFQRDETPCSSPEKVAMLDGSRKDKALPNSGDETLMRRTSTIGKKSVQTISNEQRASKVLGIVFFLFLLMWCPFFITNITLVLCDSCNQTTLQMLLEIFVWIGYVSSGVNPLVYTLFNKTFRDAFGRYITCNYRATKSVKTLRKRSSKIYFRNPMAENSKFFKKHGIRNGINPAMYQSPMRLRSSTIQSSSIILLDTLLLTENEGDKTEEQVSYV
# [8] = system: U2OS cells expressing Pendo-mGFP-Plk1 F559D; experiment: MTS proliferation assay, U2OS Plk1 RNAi cells expressing Plk1 F559D; type: cell-based; details: 3 to 6 μM, 36 h
# Method: Cell viability was determined using the […] CellTiter 96® AQueous One Solution Cell Proliferation Assay (MTS) kit (Promega) containing a tetrazolium compound [3-(4,5-dimethylthiazol-2-yl)-5-(3-carboxymethoxy-phenyl)-2-(4-sulfophenyl)-2H-tetrazolium, inner salt (MTS)] and an electron-coupling phenazine ethosulfate. For the MTS assays in Fig. 1B, L363 cells cultured in a 96-well plate were treated with the indicated compounds for 48 h (the final volume of 100 μL). After the compound treatment, cells were additionally treated with 20 μL of the MTS solution and incubated at 37 °C for 2 to 4 h in a humidified 5% CO2 atmosphere. The absorbance of the resulting sample was measured at 490 nm using a PerkinElmer EnSpire Multimode 96-well plate reader. For the MTS assays in Fig. 4E, U2OS cells stably expressing either Pendo-mGFP-Plk1 WT or F559D were seeded at approximately 5,000 cells/well in a 96-well plate, depleted of endogenous Plk1 by RNAi, and then treated with either control DMSO or Allopole as indicated in the schematic diagram in SI Appendix, Fig. S4E.
SMILES,"Interactions (Ki, µM), summary of PDSP screen (in words) [1]",inhibition at 10 µM [2],Ki [2],inhibition at 10 µM [3],Ki [3],inhibition at 10 µM [4],Ki [4],inhibition at 10 µM [5],Ki [5],Ki [6],inhibition at 10 µM [6],Ki [7],inhibition at 10 µM [7],Proliferation (in words) [8]
O=c1c2sc(Cl)cc2n2c(=S)[nH]nc2n1CC1CC1 [Allopole-A],None observed; also recorded: no interactions,-7.7 ± 9.7%,> 10 µM,-9.9 ± 23.4%,> 10 µM,21.1 ± 19.7%,> 10 µM,-8.8 ± 4.8%,> 10 µM,> 10 µM,37 ± 10.4%,> 10 µM,-17.7 ± 11.2%,
Cn1cnc([N+](=O)[O-])c1Sc1nnc2n(CC3CC3)c(=O)c3sc(Cl)cc3n12 [Allopole],only two weak µM interactions,-1.6 ± 9.5%,> 10 µM,-15.1 ± 19.8%,> 10 µM,9.3 ± 19.3%,> 10 µM,-8.7 ± 9.5%,> 10 µM,9.2 µM,52.4 ± 11.8%,> 10 µM,-0.5 ± 5%,uninhibited proliferation
